Measurements published in article PMC12734540, “Unraveling the Potential Antiviral Activity of Isoxazoline-Carbocyclic Monophosphate Nucleotides Against Echovirus 11” (Microorganisms, 2025).
Several values for one entry are separate records, joined by “and”; a condition that tells them apart may be missing. Equal values may be shown once.

Experiments:
[1] = system: Echovirus 11; test: E11 RNA quantification in supernatant by qRT-PCR (dose response); format: cell-based, Echovirus 11 lineage 1; settings: 48 h; for reduction in extracellular viral RNA: supernatant, MOI 0.025, relative to untreated infected controls
Method: (§1) Quantification of E11 genomic RNA was used as a hallmark of RNA virus replication within VERO 76-infected cells. The viral RNA was extracted from both cell culture supernatants and cell-associated fractions and quantified by one-step qRT-PCR using the automated Elite InGenius one-step RNA Enterovirus ELITe MGB® Kit, according to the manufacturer’s protocols. The experiment was performed in triplicate and RNA yield was reported as the mean value of a triplicate assay. To improve the accuracy of extracellular RNA quantification, particularly at 48 h post-infection (p.i.), a secondary analysis was performed using a two-step SYBR Green RT-qPCR. In particular, specific primers targeting the gene encoding the RNA-dependent RNA polymerase (RdRp) of E11 were designed using the Primer3 software (version 4.1.0). […]. Reverse transcription was carried out with a high-capacity cDNA synthesis kit, followed by quantitative PCR using SYBR Green Master Mix on a real-time PCR instrument. Data were analyzed using the ΔΔCt method, with normalization to the synthetic RNA spike-in.
The antiviral activity of nucleotides 4a and 4b against E11 replication was further evaluated by quantifying viral RNA in the supernatant of infected VERO 76 cells treated with increasing concentrations of each compound (6.25–50 μM for 4a; 6.25–100 μM for 4b). Following viral infection at a MOI of 0.025, cells were treated and incubated for 48 h. Viral genome copies were then assessed by qRT-PCR. Treatment with nucleotide 4a led to a dose-dependent reduction in extracellular viral RNA, with a 72% decrease observed at 25 μM and an 89% reduction at 50 μM relative to untreated infected controls.

[2] = system: Echovirus 11; test: Post-infection CPE inhibition assay (crystal violet); format: cell-based, Echovirus 11 lineage 1; settings: for reduction in E11 infection / E11-induced CPE / EC50: MOI 0.025, 48 h, VERO 76 cells; for EC50: post-infection CPE inhibition
[3] = system: SARS-CoV-2 RdRp; set-up: method as in PMID 37810686; settings: cited from earlier work
[4] = system: VERO 76 cells; settings: for cell viability: 25 µM
Method: After 48 h of incubation, 20 µL of MTS reagent were added directly to each well and the plates were incubated according to the manufacturer’s protocol. The conversion of MTS into a soluble formazan product by metabolically active cells was quantified by measuring the absorbance at 490 nm. For data analysis, the optical density (OD) of each well was first corrected by subtracting the background OD (medium + MTS without cells). The percentage of cell viability was then calculated by comparing the corrected OD of treated samples with the mean corrected OD of untreated control cells (0 µM), which was set as 100% viability:Cell viability (%) = (OD_treated − OD_blank)/(mean OD_control − OD_blank) × 100
Two independent experiments were performed, each in triplicate (n = 6 per condition). Dose–response curves were generated and CC50 values were determined by nonlinear regression using GraphPad Prism software v. 8.0 (San Diego, CA, USA).

[5] = system: Echovirus 11; test: Plaque assay of infectious titer; settings: 25 µM, supernatants collected at 48 h p.i., vs untreated control (CV)
Method: E11 infectious titers were determined by plaque assay. Briefly, 100 µL of culture supernatant from infected cells were serially diluted (10-1–10-4) in DMEM containing 1% FBS. VERO 76 cells were seeded in 24-well plates 24 h before infection to obtain 90% confluency. Cells were inoculated with 50 µl of each dilution and incubated for 1 h at 37 °C with gentle rocking. After adsorption, the inoculum was removed, and cells were overlaid with DMEM containing 1% FBS and carboxymethyl cellulose (CMC). Following 72 h incubation, monolayers were fixed, stained with crystal violet, and plaques were counted. Viral titers were expressed as plaque-forming units per milliliter (PFU/mL) according to:PFU/mL = (number of plaques)/(dilution factor × inoculated volume).

[6] = system: Echovirus 11; test: Infectivity of viral progeny (CPE on fresh cells); settings: 25 µM, supernatants collected 10, 24, 48 h p.i.
Method: To directly quantify this effect, a plaque assay was performed on supernatants collected at 48 h p.i.

[7] = system: Echovirus 11; test: Two-step SYBR Green RT-qPCR of RdRp gene RNA in supernatant; format: cell-based, Echovirus 11 lineage 1; settings: 25 µM, 48 h p.i., vs untreated controls, p = 0.0003
Method: as §1
To further corroborate and confirm the inhibitory effect of 4a on viral RNA release into the extracellular environment, an additional quantification was performed using a two-step SYBR Green-based RT-qPCR targeting the gene ecoding for the viral RdRp. […]

[8] = system: Echovirus 11; test: Time-course analysis of E11 RNA (cell monolayer and supernatant) by qRT-PCR; format: cell-based, Echovirus 11 lineage 1; settings: 25 µM, MOI 0.025; for reduction in intracellular viral RNA levels: cell monolayer
Method: as §1
To evaluate the antiviral activity of compound 4a in VERO 76 cells over time, viral replication was assessed through quantification of viral genome copies via qRT-PCR in both the cell-associated and supernatant fractions, as well as by CPE analysis.
The amount of viral RNA measured in the intracellular and the supernatant fractions was compared against the control group, which consisted of VERO 76 cells that were infected but not subjected to 4a treatment. […] (Figure 5A). […] (Figure 5B).

| Structure (SMILES) | effect on viral RNA levels in supernatant ([1]; 6.25–100 µM, MOI 0.025) | reduction in E11 infection / E11-induced CPE ([2]; 25 µM, post-infection) | reduction in E11 infection / E11-induced CPE ([2]; 50 µM, post-infection) | EC50 [2] | anti-SARS-CoV-2 RdRp activity [3] | CC50 [4] | cell viability [4] | protection from E11-induced CPE ([2]; 6.25 to 25 µM, post-infection, MOI 0.025, VERO 76 cells) | reduction in extracellular viral RNA ([1]; 25 µM) | reduction in extracellular viral RNA ([1]; 50 µM) | decrease of infectious viral titer (PFU/mL) [5] | CPE in fresh VERO 76 cells exposed to supernatants of treated cultures [6] | RdRp RNA levels in the supernatant [7] | reduction in intracellular viral RNA levels ([8]; 10 h p.i.) | reduction in intracellular viral RNA levels ([8]; 24 h p.i.) | drop in viral RNA levels in supernatant ([8]; 24 h p.i.) | drop in viral RNA levels in supernatant ([8]; 48 h p.i.) |
| --- | --- | --- | --- | --- | --- | --- | --- | --- | --- | --- | --- | --- | --- | --- | --- | --- | --- |
| O=P(O)(O)OC1CC(n2cnc3c(Cl)ncnc32)C2ON=C(c3c4ccccc4c(Br)c4ccccc34)C12 (stereo not shown) [4b] | did not markedly affect viral RNA levels | 58% | 38% | 40.5 ± 1.8 µM | moderate anti-SARS-CoV-2 RdRp activity | 93.7 µM | ~ 77% |  |  |  |  |  |  |  |  |  |  |
| CCC(CC)COC(=O)[C@H](C)N[P@](=O)(OC[C@H]1O[C@@](C#N)(c2ccc3c(N)ncnn23)[C@H](O)[C@@H]1O)Oc1ccccc1 [RDV, Remdesivir, reference compound] |  |  |  |  |  |  |  | robust and dose-dependent protection from E11-induced CPE |  |  |  |  |  |  |  |  |  |
| O=P(O)(O)OC1CC(n2cnc3c(Cl)ncnc32)C2C(c3c4ccccc4c(Br)c4ccccc34)=NOC12 (stereo not shown) [4a] |  | 90% and 83.9% | 75% and 79.8% | 8.15 ± 1.4 µM | moderate anti-SARS-CoV-2 RdRp activity |  | > 80% |  | 72% | 89% | > 10 fold | markedly reduced CPE | significantly reduced | 43% | 65% | 31% | 91% |
